Patent US20190338251A1, “Skeletal Muscle Precursor Cells and Production Method for Skeletal Muscle Cells” (Takeda Pharmaceutical Company Limited, priority 2016, published 2019)

What was measured:
Assay type in all cases: cell-based, human
253G1 cells [1] = assay: Study on reagent to be added: fluorescent immunostaining of induced myotube and skeletal muscle cells; details: for use of one reagent instead of the reference reagent (CHIR or SB) for induction: 0.5 μM BIO or 10 μM 5B216763 instead of CHIR; for use of one reagent instead of the reference reagent (CHIR or SB) for induction / use of one reagent instead of the reference reagent (SB or FSK) for induction: 1 μM A83-01 instead of SB; for use of combined replacement reagents for induction: several reference reagents (CHIR, SB, DM, FSK) replaced at once; for use of two reagents instead of SB and DM for induction / use of one reagent instead of the reference reagent (SB or FSK) for induction: fibronectin-coated vessel (section 5-2); for use of two reagents instead of SB and DM for induction: 1 μM A83-01 and 0.1 μM LDN193189; for use of one reagent instead of the reference reagent (SB or FSK) for induction: 50 μM dbcAMP instead of FSK
Method: According to Reference Example 1, 253G1 cells were plated over a Matrigel-coated culture vessel. Two days thereafter, the E8 medium was replaced with B-27 medium supplemented with 5 μM CHIR and 1% AA to start differentiation (the starting day of differentiation was defined as day 0 of differentiation).
On day 2 of differentiation, the medium was replaced with B-27 medium supplemented with 1% AA, 10 μM SB and 0.5 μM DM. On day 4 of differentiation, the medium was further replaced with B-27 medium supplemented with 1% AA and 10 μM FSK. The culture was continued until day 7 of differentiation.
On day 7 of differentiation, the medium was replaced with DMEM (high glucose) medium supplemented with 10 μM FSK, 5% StemSure Serum Replacement, 1% AA and 1% ITS-G. The culture was continued with the medium replaced every 2 to 3 days.
The cells (skeletal muscle precursor cells) on week 3 of differentiation were cryopreserved in the same way as the method described in Example 3. The cryopreserved cells were thawed, plated, and cultured for 2 days in the same way as the method described in Example 3. Then, the medium was replaced with DMEM (high glucose) medium supplemented with 10 μg/mL FGF2, 10 μM FSK, 1% AA, 5% StemSure Serum Replacement and 1% ITS-G. The culture was continued for 2 weeks with the medium replaced every 2 to 3 days.
The cells thus cultured for 2 weeks were fluorescently immunostained using an antibody recognizing myosin heavy chains (R&D Systems, Inc., clone No.: MF20), an antibody recognizing desmin (Abcam plc.) and Hoechst 33342 for nuclear staining (Dojindo Laboratories). As a result, multinuclear myotube cells costained with both the antibodies were confirmed (FIG. 5, left diagram).
On week 2 of culture, the medium was replaced with growth factor- and FSK-free DMEM (low glucose) medium supplemented with 1% AA, 5% StemSure Serum Replacement and 1% ITS-G, and the culture was continued with the medium replaced. On week 4 of culture, the cells were fluorescently immunostained using an antibody recognizing α-actinin (Sigma-Aldrich Co. LLC), an antibody recognizing dystrophin (Abcam plc.) and Hoechst 33342. As a result, multinuclear skeletal muscle cells were stained (FIG. 5, right diagram).
Various changes in conditions were studied with reference to the experiment described above. The frozen cells on weeks 2 and 4 of culture were similarly fluorescently immunostained and evaluated.
Cells were obtained in the same way as the method described in the preceding section “5-1” except that a culture vessel coated with fibronectin (Sigma-Aldrich Co. LLC) instead of Matrigel was used. After thawing, myotube cells (FIG. 6, left diagram) and skeletal muscle cells (FIG. 6, right diagram) were confirmed on weeks 2 and 4, respectively, of culture.

253G1 cells [2] = assay: Somitic mesoderm marker gene expression on day 7 of differentiation; details: 2 to 4 μM CHIR days 0 to 2, then SB (and DM) days 2 to 4, then FSK days 4 to 7
Method: (§1) According to Reference Example 1, 253G1 cells were plated over a Matrigel-coated culture vessel. Two days thereafter, the E8 medium was replaced with B-27 medium supplemented with 1 to 6 μM CHIR and 1% AA to start differentiation (the starting day of differentiation was defined as day 0 of differentiation).
(§2) On day 2 of differentiation, change in the expression of pan-mesodermal marker genes BRACHYURY and TBX6 was examined. The change in gene expression was analyzed by the following procedures: total RNA was prepared using RNeasy 96 Kit or RNeasy Mini Kit (Qiagen N.V.), and cDNA was then synthesized from the total RNA using reverse transcriptase (PrimeScript RT reagent kit, Takara Bio Inc.). The obtained cDNA was subjected to real-time PCR using a Taqman probe (Applied Biosystems, Inc.). A sample prepared from the 253G1 cells before the start of differentiation was used as a reference sample. The gene expression levels of BRACHYURY and TBX6 were calculated by the comparative Ct method.
On day 2 of differentiation, the medium was replaced with B-27 medium supplemented with 1% AA and 10 μM SB (and 0.3 to 1 μM DM). On day 4 of differentiation, the medium was further replaced with B-27 medium supplemented with 1% AA and 10 μM FSK. […]
On day 7 of differentiation, the expression levels of somitic mesoderm marker genes PAX3 and PAX7 were measured. […]

253G1 cells [3] = assay: Pan-mesodermal marker gene expression (real-time PCR) on day 2 of differentiation; details: CHIR 1 to 6 μM, ratio to undifferentiated iPS cells
Method: as §1, §2

Compound	use of one reagent instead of the reference reagent (CHIR or SB) for induction (253G1 cells [1]; Matrigel (section 5-1))	use of combined replacement reagents for induction (253G1 cells [1]; Matrigel (section 5-1))	use of two reagents instead of SB and DM for induction (253G1 cells [1])	use of one reagent instead of the reference reagent (SB or FSK) for induction (253G1 cells [1])	expression of somitic mesoderm marker genes PAX3 and PAX7 (253G1 cells [2])	BRACHYURY and TBX6 expression (253G1 cells [3])	induction of differentiation into skeletal muscle precursor cells (253G1 cells [1]; Matrigel (section 5-1), 50 μM dbcAMP instead of FSK from day 4 of differentiation)
6-bromoindirubin-3-oxime [BIO]	it was possible	it was possible					
Cn1cc(C2=C(c3ccc(Cl)cc3Cl)C(=O)NC2=O)c2ccccc21 [5B216763, 3-(2,4-dichlorophenyl)-4-(1-methyl-1H-indol-3-yl)-1H-pyrrole-2,5-dione]	it was possible	it was possible					
Cc1cccc(-c2nn(C(=S)Nc3ccccc3)cc2-c2ccnc3ccccc23)n1 [A83-01, 3-(6-methyl-2-pyridinyl)-N-phenyl-4-(4-quinolinyl)-1H-pyrazole-1-carbothioamide]	it was possible	it was possible	it was possible	it was possible			
Cc1c[nH]c(-c2cnc(NCCNc3ccc(C#N)cn3)nc2-c2ccc(Cl)cc2Cl)n1 [CHIR, 6-[[2-[[4-(2,4-dichlorophenyl)-5-(4-methyl-1H-imidazol-2-yl)-2-pyrimidinyl]amino]ethyl]amino]nicotinonitrile]					high expression	increase in a CHIR concentration-dependent manner	
Cl.c1ccc2c(-c3cnn4cc(-c5ccc(N6CCNCC6)cc5)cnc34)ccnc2c1 [LDN193189, 4-[6-(4-piperazin-1-yl-phenyl)-pyrazolo[1,5-α]pyrimidin-3-yl]-quinoline hydrochloride]		it was possible	it was possible				
CCCC(=O)Nc1ncnc2c1ncn2[C@@H]1O[C@@H]2COP(=O)(O)O[C@H]2[C@H]1OC(=O)CCC [dbcAMP, dibutyryl cAMP]		it was possible		it was possible			it was possible to induce differentiation into skeletal muscle precursor cells
